The source of these data is US20200347033A1, “MODULATORS OF THE INTEGRATED STRESS PATHWAY” (Calico Life Sciences LLC, priority 2017, published 2020).

The subject of this experiment is HEK293T cells carrying the ATF4 luciferase reporter. Nature of the experiment: ATF4-Luc assay (in vitro model of vanishing white matter disease). It is filed as cell-based, human. Particulars: Homo sapiens, HEK-293T; HEK293T cells with ATF4 5'-UTR firefly luciferase reporter; 1 μg/mL tunicamycin; 7 hours; One Glo luminescence. How it is done: In order to test exemplary compounds of the invention in a cellular context, a stable VWMD cell line was first constructed. The ATF4 reporter was prepared by fusing the human full-length ATF4 5′-UTR (NCBI Accession No. BC022088.2) in front of the firefly luciferase (FLuc) coding sequence lacking the initiator methionine as described in Sidrauski et al (eLife 2013). The construct was used to produce recombinant retroviruses using standard methods and the resulting viral supernatant was used to transduce HEK293T cells, which were then subsequently selected with puromycin to generate a stable cell line.
HEK293T cells carrying the ATF4 luciferase reporter were plated on polylysine coated 384-well plates (Greiner Bio-one) at 30,000 cells per well. Cells were treated the next day with 1 μg/mL tunicamycin and 200 nM of a compound of Formula (I) for 7 hours. Luminescence was measured using One Glo (Promega) as specified by the manufacturer. Cells were maintained in DMEM with L-glutamine supplemented with 10% heat-inactivated FBS (Gibco) and Antibiotic-Antimycotic solution (Gibco).
Table 2 below summarizes the EC50 data obtained using the ATF4-Luc assay for exemplary compounds of the invention.
A general note: A reporter such as luciferase makes a cellular process visible.
For `O=C(COc1ccc(Cl)c(F)c1)N[C@H]1CC[C@H](N2CCN(c3cnc(C(F)F)cn3)C2=O)CC1` [Compound 121, 2-(4-chloro-3-fluorophenoxy)-N-[(1r,4r)-4-{3-[5-(difluoromethyl)pyrazin-2-yl]-2-oxoimidazolidin-1-yl}cyclohexyl]acetamide], the EC50 (usually the midpoint of the concentration-response curve) was less than 50 nM.

As for `O=C(N[C@H]1CC[C@H](N2CCN(c3cnc(C(F)F)cn3)C2=O)CC1)OCc1ccccc1` [Compound 122, benzyl [(1r,4r)-4-{3-[5-(difluoromethyl)pyrazin-2-yl]-2-oxoimidazolidin-1-yl}cyclohexyl]carbamate], the EC50 is more than 2000 nM.

On to `O=C(N[C@H]1CC[C@H](N2CCN(c3ccc(C(F)F)cn3)C2=O)CC1)c1ccc(Cl)c(F)c1` [Compound 123, 4-chloro-N-[(1r,4r)-4-{3-[5-(difluoromethyl)pyridin-2-yl]-2-oxoimidazolidin-1-yl}cyclohexyl]-3-fluorobenzamide], for which the concentration giving a half-maximal response (EC50) is more than 2000 nM.

For the compound `O=C(N[C@H]1CC[C@H](N2CCN(c3ccc(C(F)F)cn3)C2=O)CC1)c1ccc(OC(F)(F)F)cn1` [Compound 124, N-[(1r,4r)-4-{3-[5-(difluoromethyl)pyridin-2-yl]-2-oxoimidazolidin-1-yl}cyclohexyl]-5-(trifluoromethoxy)pyridine-2-carboxamide], the EC50 is more than 2000 nM.

`O=C(COc1ccc(C(F)(F)F)nc1)N[C@H]1CC[C@H](N2CCN(c3ccc(C(F)F)cn3)C2=O)CC1` [Compound 125, N-[(1r,4r)-4-{3-[5-(difluoromethyl)pyridin-2-yl]-2-oxoimidazolidin-1-yl}cyclohexyl]-2-{[6-(trifluoromethyl)pyridin-3-yl]oxy}acetamide]: the concentration for a half-maximal effect (EC50) lay within 50 to 250 nM.

`O=C(COc1ccc(F)c(F)c1)N[C@H]1CC[C@H](N2CCN(c3ccc(C(F)F)cn3)C2=O)CC1` [Compound 126, N-[(1r,4r)-4-{3-[5-(difluoromethyl)pyridin-2-yl]-2-oxoimidazolidin-1-yl}cyclohexyl]-2-(3,4-difluorophenoxy)acetamide]: the EC50 was less than 50 nM.

`O=C(COc1ccc(OC(F)(F)F)cc1)N[C@H]1CC[C@H](N2CCN(c3ccc(C(F)F)cn3)C2=O)CC1` [Compound 127, N-[(1r,4r)-4-{3-[5-(difluoromethyl)pyridin-2-yl]-2-oxoimidazolidin-1-yl}cyclohexyl]-2-[4-(trifluoromethoxy)phenoxy]acetamide]: the EC50 was 250 to 1000 nM.

Regarding `O=C(COc1ccc2c(c1)OC(F)(F)O2)N[C@H]1CC[C@H](N2CCN(c3ccc(C(F)F)cn3)C2=O)CC1` [Compound 128, 2-[(2,2-difluoro-2H-1,3-benzodioxol-5-yl)oxy]-N-[(1r,4r)-4-{3-[5-(difluoromethyl)pyridin-2-yl]-2-oxoimidazolidin-1-yl}cyclohexyl]acetamide], the half-maximal effective concentration (EC50) was in the range of 50 to 250 nM.

As to `O=C(N[C@H]1CC[C@H](N2CCN(c3ccc(C(F)F)cn3)C2=O)CC1)OCc1ccccc1` [Compound 129, benzyl [(1r,4r)-4-{3-[5-(difluoromethyl)pyridin-2-yl]-2-oxoimidazolidin-1-yl}cyclohexyl]carbamate], the half-maximal effective concentration (EC50) is more than 2000 nM.

Take `O=C(COc1ccc(Cl)c(F)c1)N[C@H]1CC[C@H](N2CCN(c3ccccn3)C2=O)CC1` [Compound 130, 2-(4-chloro-3-fluorophenoxy)-N-{(1r,4r)-4-[2-oxo-3-(pyridin-2-yl)imidazolidin-1-yl]cyclohexyl}acetamide]: the concentration giving a half-maximal response (EC50) was less than 50 nM.

In the case of `Cc1csc(N2CCN([C@H]3CC[C@H](NC(=O)COc4ccc(Cl)c(F)c4)CC3)C2=O)n1` [Compound 131, 2-(4-chloro-3-fluorophenoxy)-N-{(1r,4r)-4-[3-(4-methyl-1,3-thiazol-2-yl)-2-oxoimidazolidin-1-yl]cyclohexyl}acetamide], the EC50 lay in the range of 250 to 1000 nM.

Take `O=C(COc1ccc(Cl)c(F)c1)N[C@H]1CC[C@H](N2CCN(c3ccc(C(F)F)cn3)C2=O)CC1` [Compound 133, 2-(4-chloro-3-fluorophenoxy)-N-[(1r,4r)-4-{3-[5-(difluoromethyl)pyridin-2-yl]-2-oxoimidazolidin-1-yl}cyclohexyl]acetamide]: the EC50 is less than 50 nM.

For `O=C(COc1ccc(Cl)c(F)c1)N[C@H]1CC[C@H](N2CCN(c3ccc4c(c3)OC(F)(F)O4)C2=O)CC1` [Compound 134, 2-(4-chloro-3-fluorophenoxy)-N-{(1r,4r)-4-[3-(2,2-difluoro-2H-1,3-benzodioxol-5-yl)-2-oxoimidazolidin-1-yl]cyclohexyl}acetamide], the EC50 is less than 50 nM.

Consider `O=C(COc1ccc(Cl)c(F)c1)N[C@H]1CC[C@H](N2CCN(c3ccc(Cl)cn3)C2=O)CC1` [Compound 135, 2-(4-chloro-3-fluorophenoxy)-N-{(1r,4r)-4-[3-(5-chloropyridin-2-yl)-2-oxoimidazolidin-1-yl]cyclohexyl}acetamide], for which the EC50 was less than 50 nM.

On to `O=C(COc1ccc(Cl)c(F)c1)N[C@H]1CC[C@H](N2CCN(c3ccc(OC(F)(F)F)nc3)C2=O)CC1` [Compound 136, 2-(4-chloro-3-fluorophenoxy)-N-[(1r,4r)-4-{2-oxo-3-[6-(trifluoromethoxy)pyridin-3-yl]imidazolidin-1-yl}cyclohexyl]acetamide], for which the EC50 was more than 2000 nM.

As for `O=C(COc1ccc(Cl)c(F)c1)NC12CC(N3CNc4cc(F)c(F)cc4C3=O)(C1)C2` [Compound 137, 2-(4-chloro-3-fluorophenoxy)-N-[3-(6,7-difluoro-4-oxo-1,4-dihydroquinazolin-3(2H)-yl)bicyclo[1.1.1]pentan-1-yl]acetamide], the EC50 was in the range of 250 to 1000 nM.

For `O=C(COc1ccc(Cl)c(F)c1)NC12CC(n3c(=O)c4ccc(Cl)cc4n(CCO)c3=O)(C1)C2` [Compound 138, 2-(4-chloro-3-fluorophenoxy)-N-{3-[7-chloro-1-(2-hydroxyethyl)-2,4-dioxo-1,4-dihydroquinazolin-3(2H)-yl]bicyclo[1.1.1]pentan-1-yl}acetamide], the EC50 fell in the range of 50 to 250 nM.

Take `O=c1[nH]c2cc(Cl)ccc2c(=O)n1C12CC(NCCOc3ccc(Cl)c(F)c3)(C1)C2` [Compound 139, 7-chloro-3-(3-{[2-(4-chloro-3-fluorophenoxy)ethyl]amino}bicyclo[1.1.1]pentan-1-yl)quinazoline-2,4(1H,3H)-dione]: the concentration giving a half-maximal response (EC50) was more than 2000 nM.

For `O=C(COc1ccc(Cl)c(F)c1)NC12CC(n3c(=O)[nH]c4cc(Cl)ccc4c3=O)(C1)C2` [Compound 140, N-[3-(7-chloro-2,4-dioxo-1,4-dihydroquinazolin-3(2H)-yl)bicyclo[1.1.1]pentan-1-yl]-2-(4-chloro-3-fluorophenoxy)acetamide], the EC50 is 250 to 1000 nM.

As for `O=C(COc1ccc(Cl)c(F)c1)N[C@H]1CC[C@H](N2CCN(c3ccc(OC(F)(F)F)cn3)C2=O)CC1` [Compound 141, 2-(4-chloro-3-fluorophenoxy)-N-[(1r,4r)-4-{2-oxo-3-[5-(trifluoromethoxy)pyridin-2-yl]imidazolidin-1-yl}cyclohexyl]acetamide], the EC50 lay in the range of 50 to 250 nM.

Regarding `O=C(COc1ccc(Cl)c(F)c1)N[C@H]1CC[C@H](N2CCN(c3ccc(C(F)F)nc3)C2=O)CC1` [Compound 142, 2-(4-chloro-3-fluorophenoxy)-N-[(1r,4r)-4-{3-[6-(difluoromethyl)pyridin-3-yl]-2-oxoimidazolidin-1-yl}cyclohexyl]acetamide], the EC50 is less than 50 nM.

With `O=C(COc1ccc(Cl)c(F)c1)N[C@H]1CC[C@H](N2CCN(c3ccc(C(F)(F)F)nc3)C2=O)CC1` [Compound 143, 2-(4-chloro-3-fluorophenoxy)-N-[(1r,4r)-4-{2-oxo-3-[6-(trifluoromethyl)pyridin-3-yl]imidazolidin-1-yl}cyclohexyl]acetamide], the EC50 is less than 50 nM.

For the compound `O=C(COc1ccc(Cl)c(F)c1)N[C@H]1CC[C@H](N2CCN(c3ccc(Cl)cc3)C2=O)CC1` [Compound 144, 2-(4-chloro-3-fluorophenoxy)-N-{(1r,4r)-4-[3-(4-chlorophenyl)-2-oxoimidazolidin-1-yl]cyclohexyl}acetamide], the EC50 was less than 50 nM.

Turning to `O=C(COc1ccc(Cl)c(F)c1)NC12CC(N3CCN(c4ccc(Cl)cn4)C3=O)(C1)C2` [Compound 145, 2-(4-chloro-3-fluorophenoxy)-N-{3-[3-(5-chloropyridin-2-yl)-2-oxoimidazolidin-1-yl]bicyclo[1.1.1]pentan-1-yl}acetamide], the EC50 was less than 50 nM.

As to `O=C(COc1ccc(Cl)c(F)c1)NC12CCC(N3CCN(c4ccc(Cl)c(F)c4)C3=O)(CC1)CC2O` (stereo not drawn) [Compound 146, 2-(4-chloro-3-fluorophenoxy)-N-{4-[3-(4-chloro-3-fluorophenyl)-2-oxoimidazolidin-1-yl]-2-hydroxybicyclo[2.2.2]octan-1-yl}acetamide], the concentration for a half-maximal effect (EC50) was less than 50 nM.

With `O=C(COc1ccc(Cl)c(F)c1)NC12CC(N3CCN(c4ccc(C(F)F)cn4)C3=O)(C1)C2` [Compound 147, 2-(4-chloro-3-fluorophenoxy)-N-(3-{3-[5-(difluoromethyl)pyridin-2-yl]-2-oxoimidazolidin-1-yl}bicyclo[1.1.1]pentan-1-yl)acetamide], the EC50 is less than 50 nM.

Turning to `O=C(COc1ccc(Cl)c(F)c1)NC12CC(N3C(=O)OC(c4ccc(F)cc4)C3=O)(C1)C2` (stereo not drawn) [Compound 158, 2-(4-chloro-3-fluorophenoxy)-N-{3-[5-(4-fluorophenyl)-2,4-dioxo-,3-oxazolidin-3-yl]bicyclo[1.1.1]pentan-1-yl}acetamide], the EC50 fell in the range of 1000 to 2000 nM.
